In PMC9415608, “Design, Synthesis and Biological Investigation of 2-Anilino Triazolopyrimidines as Tubulin Polymerization Inhibitors with Anticancer Activities” (Pharmaceuticals, 2022):
Like-named read-outs stand apart in the source and are kept apart here.

Columns and labels:
[1] = test system: MDA-MB-231, HeLa, A549 and HT-29 cancer cell lines; assay: Antiproliferative activity stated across the panel of cancer cell lines; assay type: cell-based, human; conditions: for IC50: Homo sapiens, read-out: IC50
Method: (§1) All the cell lines used in this paper were of human origin and purchased from the American Type Culture Collection (ATCC, Manassas, VA, USA). Colon adenocarcinoma (HT-29), non-small cell lung carcinoma (A549), cervix carcinoma (HeLa) and breast adenocarcinoma (MDA-MB-231) cells were grown in RPMI (HT29) or DMEM (A549, HeLa, MDA-MB-231) medium (Gibco, Milano, Italy). Both media were supplemented with 115 units/mL of penicillin G (Gibco, Milano, Italy), 115 μg/mL of streptomycin (Invitrogen, Milano, Italy) and 10% fetal bovine serum (Invitrogen, Milano, Italy). All cell lines were grown at 37 °C in a humidified 5% CO2 atmosphere. The cells were grown in 2 mL of complete medium.
(§2) Stock solutions were prepared for each compound by dissolving in DMSO at the final concentration of 10 mM.
(§3) The cells were seeded in 96-well plates at the appropriate density for each cell line. The respective cell line densities used for the antiproliferative assay were HeLa and HT29 5000 cells/well, A549 4000 cells/well and MDA-MB-231 7000 cells/well. The total volume of medium was 100 µL. After 24 h, the cells were treated by performing serial 5-fold dilutions of the tested compounds starting from a concentration of 10 μM. All experimental conditions were tested in triplicate for statistical analysis. After 72 h of incubation, 10 μL of 100 μg/mL resazurin solution was added to each well and the plate was re-incubated for 3–4 h. The fluorescence of the wells in each plate was monitored using a Spark 10M spectrophotometer (Tecan Group Ltd., Mannedorf, Switzerland) with a 535 nm excitation wavelength and a 600 nm emission wavelength.

[2] = test system: HT29; assay: In vitro cell growth inhibition, resazurin viability assay; assay type: cell-based, human; conditions: for IC50: Homo sapiens, HT-29, 72 h, resazurin, mean ± SE
Method: as §1, §2, §3

[3] = test system: A549; assay: as above; assay type: cell-based, human; conditions: Homo sapiens, A549; 72 h, resazurin; mean ± SE
Method: as §1, §2, §3

[4] = test system: MDA-MB-231; assay: as above; assay type: cell-based, human; conditions: Homo sapiens, MDA-MB-231; 72 h, resazurin; mean ± SE
Method: as §1, §2, §3

[5] = test system: HeLa; assay: as above; assay type: cell-based, human; conditions: for IC50: Homo sapiens, 72 h, resazurin, mean ± SE
Method: as §1, §2, §3

[6] = test system: Bovine brain tubulin; assay: Inhibition of tubulin polymerization (turbidimetric assembly assay); assay type: biochemical; conditions: tubulin at 10 μM, 20 min incubation; read-out: Tubulin Assembly IC50 ± SD
Method: (§4) Bovine brain tubulin was purified as described previously. To evaluate the effects of the compounds on tubulin assembly in vitro [80], varying concentrations were preincubated with 10 μM tubulin in 0.8 M monosodium glutamate (pH 6.6) at 30 °C and the reaction mixtures then cooled to 0 °C. After addition of GTP, the mixtures were transferred to 0 °C cuvettes in Beckman Coulter (Brea, CA, USA) DU-7400/DU-7500 recording spectrophotometers equipped with electronic temperature controllers and warmed to 30 °C, and the assembly of tubulin was observed turbidimetrically. […] Inhibition of colchicine binding to tubulin was measured as described before, except that the reaction mixtures contained 0.5 μM tubulin and 5 μM each of [^3H]colchicine and test compound. Only one DEAE-cellulose filter was used per sample, and filtration was by gravity.
(§5) Bovine brain tubulin (see ref. [79] for details of purification) was used to examine effects on tubulin polymerization and colchicine binding. Briefly, in the polymerization experiments, different compound concentrations were preincubated with 10 µM tubulin for 15 min at 30 °C and cooled on ice. After GTP was added to each reaction mixture, the samples were transferred to 0 °C cuvettes in recording spectrophotometers with electronic temperature controllers. The temperature was raised to 30 °C over about 30 s, and turbidity development was followed for 20 min at 350 nm. […] In the current studies, [^3H]colchicine (from American Radiolabeled Corp., St. Louis, MO) binding was measured after 10 min at 37 °C. Reaction mixtures contained 0.5 µM tubulin and 5.0 µM each of the [^3H]colchicine and the potential inhibitor, and a single DEAE-cellulose filter was used for each sample, with gravity filtration.

[7] = test system: Bovine brain tubulin; assay: Inhibition of [3H]colchicine binding to tubulin; conditions: tubulin 0.5 µM, [3H]colchicine 5 µM, tested compound 5 µM
Method: as §4, §5

[8] = stated for the panel of cancer cell lines as a whole

Compound | IC50 [1, 8] [µM] | IC50 [2] [µM] | IC50 [3] [µM] | IC50 [4] [µM] | IC50 [5] [µM] | melting point [°C] | fold more active than 3n ([2]; HT-29 cells) [fold] | fold more active than 3n ([5]; HeLa cells) [fold] | fold reduction in antiproliferative activity relative to 3d ([1]; range over cell lines) | fold increase in antiproliferative activity relative to 3k ([1]; three of the four cancer cell lines) | IC50 ([1]; against three of the four cancer cell lines (not HT-29)) [µM] | fold reduction in potency relative to 3a ([2]; HT-29 cells) [fold] | IC50 [6] [nM] | Colchicine Binding % Inhibition ± SD [7] [%]
CCOc1ccc(Nc2nc3nccc(-c4cc(OC)c(OC)c(OC)c4)n3n2)cc1 [Compound 3m, N-(4-Ethoxyphenyl)-7-(3,4,5-trimethoxyphenyl)-[1,2,4]triazolo[1,5-a]pyrimidin-2-amine] | > 10 | 6.16 ± 0.97 | > 10 | > 10 | > 10 | 205 to 207 | – | – | – | – | – | – | – | –
COc1cc(-c2ccnc3nc(Nc4ccc5c(c4)OCCO5)nn23)cc(OC)c1OC [Compound 3o, N-(2,3-Dihydrobenzo[b][1,4]dioxin-6-yl)-7-(3,4,5-trimethoxyphenyl)-[1,2,4]triazolo[1,5-a]pyrimidin-2-amine] | – | 0.67 ± 0.12 | 2.42 ± 0.12 | > 10 | 0.29 ± 0.031 | 212 to 214 | 2 | 3 | – | – | – | – | – | –
COc1cc(-c2ccnc3nc(Nc4ccc(F)cc4)nn23)cc(OC)c1OC [Compound 3c, N-(4-Fluorophenyl)-7-(3,4,5-trimethoxyphenyl)-[1,2,4]triazolo[1,5-a]pyrimidin-2-amine] | – | > 10 | > 10 | > 10 | 5.44 ± 1.05 | 234 to 235 | – | – | – | – | – | – | – | –
COc1ccc(Nc2nc3nccc(-c4cc(OC)c(OC)c(OC)c4)n3n2)cc1 [Compound 3k, N-(4-Methoxyphenyl)-7-(3,4,5-trimethoxyphenyl)-[1,2,4]triazolo[1,5-a]pyrimidin-2-amine] | – | – | – | – | – | 213 to 215 | – | – | – | – | – | – | – | –
COc1cc(-c2ccnc3nc(Nc4ccc(C(C)C)cc4)nn23)cc(OC)c1OC [Compound 3j, N-(4-Isopropylphenyl)-7-(3,4,5-trimethoxyphenyl)-[1,2,4]triazolo[1,5-a]pyrimidin-2-amine] | – | > 10 | > 10 | > 10 | 4.7 ± 0.59 | 212 to 214 | – | – | – | – | – | – | – | –
COc1cc(-c2ccnc3nc(Nc4cccc(C)c4)nn23)cc(OC)c1OC [Compound 3e, N-(m-Tolyl)-7-(3,4,5-trimethoxyphenyl)-[1,2,4]triazolo[1,5-a]pyrimidin-2-amine] | – | 1.38 ± 0.09 | 1.87 ± 0.17 | > 10 | 0.39 ± 0.02 | 229 to 230 | – | – | 10–46 fold | – | – | – | – | –
CCCc1ccc(Nc2nc3nccc(-c4cc(OC)c(OC)c(OC)c4)n3n2)cc1 [Compound 3i, N-(4-Propylphenyl)-7-(3,4,5-trimethoxyphenyl)-[1,2,4]triazolo[1,5-a]pyrimidin-2-amine] | – | > 10 | > 10 | > 10 | > 10 | 185 to 187 | – | – | – | – | – | – | – | –
COc1cc(-c2ccnc3nc(NCCc4ccccc4)nn23)cc(OC)c1OC [Compound 3u, N-Phenethyl-7-(3,4,5-trimethoxyphenyl)-[1,2,4]triazolo[1,5-a]pyrimidin-2-amine] | > 10 | 6.74 ± 0.5 | > 10 | 8.7 ± 1.1 | > 10 | 138 to 139 | – | – | – | – | – | – | – | –
COc1cc(-c2ccnc3nc(NCc4ccccc4)nn23)cc(OC)c1OC [Compound 3p, N-Benzyl-7-(3,4,5-trimethoxyphenyl)-[1,2,4]triazolo[1,5-a]pyrimidin-2-amine] | > 10 | > 10 | > 10 | 9.3 ± 0.22 | > 10 | 144 to 146 | – | – | – | – | – | – | – | –
COc1cc(-c2ccnc3nc(Nc4cc(C)cc(C)c4)nn23)cc(OC)c1OC [Compound 3g, N-(3,5-Dimethylphenyl)-7-(3,4,5-trimethoxyphenyl)-[1,2,4]triazolo[1,5-a]pyrimidin-2-amine] | > 10 | > 10 | > 10 | > 10 | > 10 | 228 to 230 | – | – | – | – | – | – | – | –
COc1cc(-c2ccnc3nc(NCc4ccc(C)cc4)nn23)cc(OC)c1OC [Compound 3r, N-(4-Methylbenzyl)-7-(3,4,5-trimethoxyphenyl)-[1,2,4]triazolo[1,5-a]pyrimidin-2-amine] | > 10 | > 10 | > 10 | > 10 | > 10 | 156 to 158 | – | – | – | – | – | – | – | –
COc1cc(-c2ccnc3nc(Nc4ccccc4)nn23)cc(OC)c1OC [Compound 3a, N-Phenyl-7-(3,4,5-trimethoxyphenyl)-[1,2,4]triazolo[1,5-a]pyrimidin-2-amine] | – | – | – | – | – | 235 to 236 | – | – | – | – | – | – | – | –
COc1cc(-c2ccnc3nc(Nc4ccc5c(c4)OCO5)nn23)cc(OC)c1OC [Compound 3n, N-(Benzo[d][1,3]dioxol-5-yl)-7-(3,4,5-trimethoxyphenyl)-[1,2,4]triazolo[1,5-a]pyrimidin-2-amine] | – | 1.39 ± 0.06 | 1.44 ± 0.26 | 6.1 ± 1.72 | – | 234 to 236 | – | – | – | 1.5- to 4 fold | – | – | – | –
COc1ccc(CNc2nc3nccc(-c4cc(OC)c(OC)c(OC)c4)n3n2)cc1 [Compound 3s, N-(4-Methoxybenzyl)-7-(3,4,5-trimethoxyphenyl)-[1,2,4]triazolo[1,5-a]pyrimidin-2-amine] | > 10 | > 10 | > 10 | > 10 | > 10 | 190 to 192 | – | – | – | – | – | – | – | –
COc1cc(-c2ccnc3nc(Nc4cccnc4)nn23)cc(OC)c1OC [Compound 3b, N-(Pyridin-3-yl)-7-(3,4,5-trimethoxyphenyl)-[1,2,4]triazolo[1,5-a]pyrimidin-2-amine] | – | 3.42 ± 0.41 | > 10 | > 10 | > 10 | 172 to 174 | – | – | – | – | > 10 | 3 | – | –
COc1cc(-c2ccnc3nc(NCc4ccc5c(c4)OCO5)nn23)cc(OC)c1OC [Compound 3t, N-(Benzo[d][1,3]dioxol-5-ylmethyl)-7-(3,4,5-trimethoxyphenyl)-[1,2,4]triazolo[1,5-a]pyrimidin-2-amine] | > 10 | > 10 | > 10 | > 10 | > 10 | 233 to 235 | – | – | – | – | – | – | – | –
COc1cccc(Nc2nc3nccc(-c4cc(OC)c(OC)c(OC)c4)n3n2)c1 [Compound 3l, N-(3-Methoxyphenyl)-7-(3,4,5-trimethoxyphenyl)-[1,2,4]triazolo[1,5-a]pyrimidin-2-amine] | – | 0.76 ± 0.18 | 0.76 ± 0.18 | 1.76 ± 0.9 | 0.44 ± 0.08 | 165 to 166 | – | – | – | – | – | – | 2200 ± 200 | 39 ± 5
COc1cc(-c2ccnc3nc(NCc4ccc(Cl)cc4)nn23)cc(OC)c1OC [Compound 3q, N-(4-Chlorobenzyl)-7-(3,4,5-trimethoxyphenyl)-[1,2,4]triazolo[1,5-a]pyrimidin-2-amine] | – | > 10 | > 10 | > 10 | > 10 | 171 to 173 | – | – | – | – | – | – | – | –
COc1cc(-c2ccnc3nc(NCCCc4ccccc4)nn23)cc(OC)c1OC [Compound 3v, N-(3-Phenylpropyl)-7-(3,4,5-trimethoxyphenyl)-[1,2,4]triazolo[1,5-a]pyrimidin-2-amine] | > 10 | > 10 | > 10 | > 10 | > 10 | 98 to 100 | – | – | – | – | – | – | – | –
